Source: paper PMC8154156 (ACS Omega, 2021)

Experiments:
[1] = target: T1, T5 exonuclease (T5E) (Escherichia phage T5, UniProt P06229); test: agarose gel, degradation of; type: biochemical; settings: high nucleotide concentrations
T1 sequence (P06229 2-291): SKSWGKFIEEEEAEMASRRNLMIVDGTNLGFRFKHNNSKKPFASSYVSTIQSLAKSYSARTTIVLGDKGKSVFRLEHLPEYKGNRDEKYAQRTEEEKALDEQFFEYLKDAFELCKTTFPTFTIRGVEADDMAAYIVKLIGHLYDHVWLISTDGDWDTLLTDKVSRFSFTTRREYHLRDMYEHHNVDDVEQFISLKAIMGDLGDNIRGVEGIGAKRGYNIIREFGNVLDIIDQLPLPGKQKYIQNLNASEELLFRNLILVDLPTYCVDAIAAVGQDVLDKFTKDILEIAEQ

[2] = target: T2, E. coli DNA topoisomerase I (EcTopI) (Escherichia coli, UniProt P06612); test: agarose gel DNA relaxation assay; type: biochemical
T2 sequence (P06612 1-865): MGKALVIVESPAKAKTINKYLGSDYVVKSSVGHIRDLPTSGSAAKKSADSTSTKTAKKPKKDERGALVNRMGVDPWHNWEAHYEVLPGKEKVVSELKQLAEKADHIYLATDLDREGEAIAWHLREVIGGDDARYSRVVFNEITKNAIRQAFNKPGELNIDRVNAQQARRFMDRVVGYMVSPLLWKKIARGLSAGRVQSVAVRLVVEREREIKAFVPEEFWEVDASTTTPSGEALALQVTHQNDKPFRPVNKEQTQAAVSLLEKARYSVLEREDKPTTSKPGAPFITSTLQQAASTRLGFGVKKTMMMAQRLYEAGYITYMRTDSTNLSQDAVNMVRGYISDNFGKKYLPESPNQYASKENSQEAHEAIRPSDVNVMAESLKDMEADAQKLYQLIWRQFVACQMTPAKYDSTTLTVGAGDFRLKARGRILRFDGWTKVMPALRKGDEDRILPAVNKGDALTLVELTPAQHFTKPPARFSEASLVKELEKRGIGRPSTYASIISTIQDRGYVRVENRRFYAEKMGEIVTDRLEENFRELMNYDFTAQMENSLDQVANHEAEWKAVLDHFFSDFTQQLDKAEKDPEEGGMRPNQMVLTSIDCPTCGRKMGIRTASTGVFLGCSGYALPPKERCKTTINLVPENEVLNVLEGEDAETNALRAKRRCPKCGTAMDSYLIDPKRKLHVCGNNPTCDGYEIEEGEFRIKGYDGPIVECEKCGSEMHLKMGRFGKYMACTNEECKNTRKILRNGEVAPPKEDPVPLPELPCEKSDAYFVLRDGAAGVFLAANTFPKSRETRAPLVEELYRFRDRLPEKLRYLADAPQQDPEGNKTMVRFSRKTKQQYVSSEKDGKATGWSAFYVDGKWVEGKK

[3] = target: T1, T5 exonuclease (T5E); test: flap endonuclease activity assay; type: biochemical
[4] = target: variola DNA topoisomerase I (vTopI) (Variola virus human/India/Ind3/1967, UniProt P32989)
Chain of variola DNA topoisomerase I (vTopI) (P32989 whole entry, looked up): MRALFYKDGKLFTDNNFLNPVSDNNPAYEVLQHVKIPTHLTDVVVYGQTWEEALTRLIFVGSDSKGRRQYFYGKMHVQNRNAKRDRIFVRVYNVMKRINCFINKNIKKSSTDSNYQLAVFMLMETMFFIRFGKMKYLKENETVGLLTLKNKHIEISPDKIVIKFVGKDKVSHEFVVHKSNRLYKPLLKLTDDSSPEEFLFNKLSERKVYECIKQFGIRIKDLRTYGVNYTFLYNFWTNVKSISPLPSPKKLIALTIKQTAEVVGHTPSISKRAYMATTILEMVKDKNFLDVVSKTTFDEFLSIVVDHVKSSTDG

Compound | agarose gel, degradation of (-) sc pAB1 [1] | other results
Nc1ncnc2c1ncn2[C@@H]1O[C@H](COP(=O)(O)OP(=O)(O)OP(=O)(O)O)[C@@H](O)[C@H]1O [ATP] | high concentrations of ATP, GTP, CTP, and UTP inhibited the degradation of (−) sc pAB1 | 
Nc1ccn([C@@H]2O[C@H](COP(=O)(O)OP(=O)(O)OP(=O)(O)O)[C@@H](O)[C@H]2O)c(=O)n1 [CTP] | high concentrations of ATP, GTP, CTP, and UTP inhibited the degradation of (−) sc pAB1 | 
Nc1nc2c(ncn2[C@@H]2O[C@H](COP(=O)(O)OP(=O)(O)OP(=O)(O)O)[C@@H](O)[C@H]2O)c(=O)[nH]1 [GTP] | high concentrations of ATP, GTP, CTP, and UTP inhibited the degradation of (−) sc pAB1 | 
O=C1C=C(NCCc2cc(Br)c(O)c(Br)c2)C(=O)c2ncccc21 [NSC668394] |  | IC50 [2]: 8 ± 0.2 µM
O=c1ccn([C@@H]2O[C@H](COP(=O)(O)OP(=O)(O)OP(=O)(O)O)[C@@H](O)[C@H]2O)c(=O)[nH]1 [UTP] | high concentrations of ATP, GTP, CTP, and UTP inhibited the degradation of (−) sc pAB1 | 
Cc1ccc(C(=O)Nc2ccc(S(=O)(=O)O)c3cc(S(=O)(=O)O)cc(S(=O)(=O)O)c23)cc1NC(=O)c1cccc(NC(=O)Nc2cccc(C(=O)Nc3cc(C(=O)Nc4ccc(S(=O)(=O)O)c5cc(S(=O)(=O)O)cc(S(=O)(=O)O)c45)ccc3C)c2)c1 [suramin] |  | IC50 [3]: 22.6 µM; T5 exonuclease-based fluorescence HTS at 20 μM [4]: The only positive hit is the polynegatively charged suramin (Figure S6b)
